According to US20230014445A1, “ALLOSTERIC CHROMENONE INHIBITORS OF PHOSPHOINOSITIDE 3-KINASE (PI3K) FOR THE TREATMENT OF DISEASE” (Petra Pharma Corporation, priority 2021, published 2023):

Columns and labels:
[1] = target: T1, human full length PIK3KA Wild-type (p110α/p85α complex) (Homo sapiens, UniProt P42336); test: PI3K-Alpha Kinase (PIK3CA) biochemical activity, wild-type (ADP-Glo); details: 20 uM ATP
T1 construct: Recombinant, catalytically active human full length PIK3KA Wild-type and H1047R mutant were purchased; 6xHis (N); purchased EMD Millipore Sigma 14-602M
Description: (§1) PI3K-Alpha Kinase (PIK3CA) Activity, Wild-Type and H1047R Mutant and Determining IC50 Values for Inhibitors
(§2) Recombinant, catalytically active human full length PIK3KA Wild-type and H1047R mutant were purchased as 1:1 complex of N-terminal 6×his tagged p110α (catalytic) and untagged p85α, (regulatory subunit) from EMD Millipore Sigma (cat. no. 14-602M and 14-792M, respectively). PIP2diC8 (Avanti Polar Lipids Inc., cat. no. 850185) or Soy PI (Avanti Polar Lipids Inc., cat. No. 840044P) was used as lipid substrate. PIP2diC8 or PI lyophilized powder was dissolved in milliQ water to a concentration of 1 mM just before use. 10 mM stock compounds in DMSO were serially diluted 1:3 to generate a 10-point curve and plated using an acoustic liquid handler system (Echo 550 series instrument, Labcyte). A 10× intermediate compound plate (200 uM starting compound concentration and 10% DMSO) was prepared before starting the reaction. A typical reaction mixture (50 uL) comprised 40 mM HEPES buffer, pH 7.4, 25 mM MgCl2, 0.01% v/v triton-X-100, 1% v/v DMSO, 20 mM NaCl, 1-5 nM WT or H1047R PI3K protein, 20 uM ATP, and 50 uM PIP2diC8 or Soy PI. 1% DMSO buffer alone without test compound was employed as MAX control (full activity in the absence of any inhibitor), and no enzyme control was used to determine the level of background Adenosine 5′-diphosphate (ADP) (MIN control). First, Wild-type (WT) and H1047R mutant protein in kinase buffer with all components except ATP were incubated with or without compound at 27° C. for 1 h. After the pre-incubation, the reaction was initiated by the addition of […] (20 uM final concentration). The reaction was allowed to proceed until about 10% conversion of ATP (2 uM ADP) at 27° C. After that time, 5 uL of reaction was mixed with 5 uL of ADP-Kinase Glo Reagent (ADP-Glo Kinase assay kit, Promega cat. no. V9102) supplemented with MgCl2 10 mM to stop the reaction and deplete the remaining ATP for 40 min at room temperature. Then, 10 uL of Kinase Detection Reagent (ADP-Glo Kinase assay kit, Promega cat. no. V9102) was added to simultaneously convert ADP to ATP and allow the newly synthesized ATP to be measured using a luciferase/luciferin reaction. After 30 min at room temperature the light generated was measured using a luminometer (EnVision plate reader, Perkin Elmer). Process data through Genedata-Screener tool. Relative IC50 values are determined using luminescence units by calculating percent inhibition with respect to on-plate “MIN” and “MAX” controls. Data was analyzed using a 4-parameter nonlinear logistic equation (four-parameter logistic concentration-response curve):
(§3) Y=bot+[(top−bot)/1+(x/IC50)slope]
(§4) where Y=% inhibition, X=concentration yielding y % inhibition, Bottom=minimum value of y attained by curve, Top=maximum value of y attained by curve and Slope=steepness of curve at IC50.
(§5) % Inh=[(median Max−x/median Max−median Min)]·100
(§6) IC50: concentration of compound that reduces a given response (ligand binding, enzyme response) by 50%. IC50 relative: concentration giving half the compound's maximum response.
(§7) For IC50 values shown in Table A, “A” means IC50<0.5 μM; “B” means IC50 ranging between 0.5 μM and 1.0 μM; “C” means IC50 ranging between 1 μM and 5 μM; “D” means IC50 ranging between 5 μM and 10 μM; “E” means IC50>10 μM.

[2] = target: T2, human full length PIK3KA H1047R mutant (p110α/p85α complex) (Homo sapiens, UniProt P42336, H1047R); test: PI3K-Alpha Kinase (PIK3CA) biochemical activity, H1047R mutant (ADP-Glo); details: 20 uM ATP
T2 construct: Recombinant, catalytically active human full length PIK3KA Wild-type and H1047R mutant were purchased; 6xHis (N); purchased EMD Millipore Sigma 14-792M
Description: as §1, §2, §3, §4, §5, §6, §7

T2 sequence (P42336 whole entry H1047R): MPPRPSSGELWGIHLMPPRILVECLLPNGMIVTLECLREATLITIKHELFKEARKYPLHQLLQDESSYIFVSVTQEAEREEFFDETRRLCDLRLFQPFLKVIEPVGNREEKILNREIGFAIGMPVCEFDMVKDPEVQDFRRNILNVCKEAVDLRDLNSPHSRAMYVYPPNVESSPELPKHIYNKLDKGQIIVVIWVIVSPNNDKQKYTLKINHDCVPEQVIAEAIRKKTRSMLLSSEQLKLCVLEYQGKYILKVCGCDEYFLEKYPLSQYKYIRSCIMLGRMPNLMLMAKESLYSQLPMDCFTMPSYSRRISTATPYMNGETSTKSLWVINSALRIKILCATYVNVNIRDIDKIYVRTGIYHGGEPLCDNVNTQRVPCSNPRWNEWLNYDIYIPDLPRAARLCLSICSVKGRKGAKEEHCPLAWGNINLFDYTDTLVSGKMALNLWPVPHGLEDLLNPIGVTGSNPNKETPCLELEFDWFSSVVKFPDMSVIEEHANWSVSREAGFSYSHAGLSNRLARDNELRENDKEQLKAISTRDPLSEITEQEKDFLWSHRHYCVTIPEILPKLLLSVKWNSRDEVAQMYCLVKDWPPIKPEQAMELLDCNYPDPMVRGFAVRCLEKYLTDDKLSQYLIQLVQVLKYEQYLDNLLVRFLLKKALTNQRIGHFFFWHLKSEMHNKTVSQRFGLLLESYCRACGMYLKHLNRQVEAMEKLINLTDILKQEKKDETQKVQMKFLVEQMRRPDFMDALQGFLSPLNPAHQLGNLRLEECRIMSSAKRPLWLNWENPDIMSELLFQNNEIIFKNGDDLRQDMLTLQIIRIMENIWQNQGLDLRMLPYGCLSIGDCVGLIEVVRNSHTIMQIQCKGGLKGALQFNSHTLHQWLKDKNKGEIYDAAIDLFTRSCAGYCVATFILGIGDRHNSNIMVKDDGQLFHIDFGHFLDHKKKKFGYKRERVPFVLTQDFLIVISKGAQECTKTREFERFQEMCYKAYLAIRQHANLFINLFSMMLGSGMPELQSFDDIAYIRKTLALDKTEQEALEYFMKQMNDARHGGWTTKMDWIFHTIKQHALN
T2 sequence (P27986 whole entry partner): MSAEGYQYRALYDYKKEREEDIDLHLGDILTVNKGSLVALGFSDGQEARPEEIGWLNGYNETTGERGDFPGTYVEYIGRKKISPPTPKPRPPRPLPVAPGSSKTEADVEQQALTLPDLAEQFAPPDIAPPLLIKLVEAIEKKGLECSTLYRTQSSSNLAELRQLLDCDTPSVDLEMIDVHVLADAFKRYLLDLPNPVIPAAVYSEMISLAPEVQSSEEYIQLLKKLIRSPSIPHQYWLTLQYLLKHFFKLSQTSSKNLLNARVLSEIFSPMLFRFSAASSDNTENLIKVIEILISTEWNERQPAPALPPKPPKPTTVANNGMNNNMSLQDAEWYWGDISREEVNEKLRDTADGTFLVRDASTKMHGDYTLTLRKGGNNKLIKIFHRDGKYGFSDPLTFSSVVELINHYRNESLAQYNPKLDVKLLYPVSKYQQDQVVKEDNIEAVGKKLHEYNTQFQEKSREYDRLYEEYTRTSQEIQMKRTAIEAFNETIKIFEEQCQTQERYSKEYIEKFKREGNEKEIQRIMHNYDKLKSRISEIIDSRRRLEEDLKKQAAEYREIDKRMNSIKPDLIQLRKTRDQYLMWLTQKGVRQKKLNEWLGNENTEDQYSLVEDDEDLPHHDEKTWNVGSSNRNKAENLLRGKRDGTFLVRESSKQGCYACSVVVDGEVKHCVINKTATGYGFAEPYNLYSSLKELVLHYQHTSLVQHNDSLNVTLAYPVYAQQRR

SMILES	IC50 ([1]; PIP2diC8 lipid substrate) [nM]	IC50 ([2]; PIP2diC8 lipid substrate) [nM]	IC50 ([1]; Soy PI lipid substrate) [nM]	IC50 ([2]; Soy PI lipid substrate) [nM]
COc1ncc(-c2cc(=O)c3cc(C)cc(C(C)Nc4ccccc4C(=O)O)c3o2)cn1 (single isomer, unassigned) [Example 4, 2-[1-[2-(2-Methoxypyrimidin-5-yl)-6-methyl-4-oxo-chromen-8-yl]ethylamino]benzoic acid]	< 500	< 500		
COc1ccnc(-c2cc(=O)c3cc(C)cc(C(C)Nc4ccccc4C(=O)O)c3o2)c1 (single isomer, unassigned) [Example 43, 2-[1-[2-(4-Methoxy-2-pyridyl)-6-methyl-4-oxo-chromen-8-yl]ethylamino]benzoic acid, Isomer 2,2,2,2-trifluoroacetic acid]			5000 to 10000	500 to 1000
Cc1cc(C(C)Nc2ccccc2C(=O)O)c2oc(-c3cn[nH]c3)cc(=O)c2c1 (single isomer, unassigned) [Example 51, 2-[1-[6-Methyl-4-oxo-2-(1H-pyrazol-4-yl)chromen-8-yl]ethylamino]benzoic acid, Isomer 2,2,2,2-trifluoroacetic acid]			1000 to 5000	< 500
COc1cccc(-n2cc(-c3cc(=O)c4cc(C)cc(C(C)Nc5ccccc5C(=O)O)c4o3)cn2)c1 (single isomer, unassigned) [Example 53, 2-[1-[2-[1-(3-Methoxyphenyl)pyrazol-4-yl]-6-methyl-4-oxo-chromen-8-yl]ethylamino]benzoic acid, Isomer 2,2,2,2-trifluoroacetic acid]			1000 to 5000	< 500
Cc1cc(C(C)Nc2ccccc2C(=O)O)c2oc(-c3cnn(-c4cccc(C#N)c4)c3)cc(=O)c2c1 (single isomer, unassigned) [Example 54, 2-[1-[2-[1-(3-Cyanophenyl)pyrazol-4-yl]-6-methyl-4-oxo-chromen-8-yl]ethylamino]benzoic acid, Isomer 2,2,2,2-trifluoroacetic acid]			1000 to 5000	< 500
Cc1cc(C(C)Nc2ccccc2C(=O)O)c2oc(-n3nccn3)cc(=O)c2c1 (single isomer, unassigned) [Example 57, 2-[1-[6-Methyl-4-oxo-2-(triazol-2-yl)chromen-8-yl]ethylamino]benzoic acid, Isomer 2,2,2,2-trifluoroacetic acid]			> 10000	< 500
Cc1cc(C(C)Nc2ccccc2C(=O)O)c2oc(-n3cccn3)cc(=O)c2c1 (single isomer, unassigned) [Example 58, 2-[1-(6-Methyl-4-oxo-2-pyrazol-1-yl-chromen-8-yl)ethylamino]benzoic acid, Isomer 2,2,2,2-trifluoroacetic acid]			5000 to 10000	< 500
Cc1cc(C(C)Nc2ccccc2C(=O)O)c2oc(-n3ccnc3)cc(=O)c2c1 (single isomer, unassigned) [Example 59, 2-[1-(2-Imidazol-1-yl-6-methyl-4-oxo-chromen-8-yl)ethylamino]benzoic acid, Isomer 2,2,2,2-trifluoroacetic acid]	1000 to 5000	< 500		
Cc1cc(C(C)Nc2ccccc2C(=O)O)c2oc(-c3cnn(-c4cccnc4)c3)c(C)c(=O)c2c1 (single isomer, unassigned) [Example 63, 2-[1-[3,6-Dimethyl-4-oxo-2-[1-(3-pyridyl)pyrazol-4-yl]chromen-8-yl]ethylamino]benzoic acid, Isomer 1,2,2,2-trifluoroacetic acid]			1000 to 5000	< 500
Cc1cc(C(C)Nc2ccccc2C(=O)O)c2oc(-c3cnn(-c4ccc(C#N)cc4)c3)cc(=O)c2c1 (single isomer, unassigned) [Example 64, 2-[1-2-[1-(4-Cyanophenyl)pyrazol-4-yl]-6-methyl-4-oxo-chromen-8-yl]ethylamino]benzoic acid, Isomer 2,2,2,2-trifluoroacetic acid]			1000 to 5000	< 500
COc1cccc(-n2cc(-c3oc4c(C(C)Nc5ccccc5C(=O)O)cc(C)cc4c(=O)c3C)cn2)c1 (single isomer, unassigned) [Example 66, 2-[1-2-[1-(3-Methoxyphenyl)pyrazol-4-yl]-3,6-dimethyl-4-oxo-chromen-8-yl]ethylamino]benzoic acid, Isomer 1,2,2,2-trifluoroacetic acid]			500 to 1000	< 500
Cc1cc(C(C)Nc2ccccc2C(=O)O)c2oc(-c3ccccn3)c(C(F)(F)F)c(=O)c2c1 (single isomer, unassigned) [Example 67, 2-[1-[6-Methyl-4-oxo-2-(2-pyridyl)-3-(trifluoromethyl)chromen-8-yl]ethylamino]benzoic acid, Isomer 1,2,2,2-trifluoroacetic acid]			1000 to 5000	< 500
Cc1c(-c2ccccn2)oc2c(C(C)Nc3ccccc3C(=O)O)cc(F)cc2c1=O (single isomer, unassigned) [Example 68, 2-[1-[6-Fluoro-3-methyl-4-oxo-2-(2-pyridyl)chromen-8-yl]ethylamino]benzoic acid, Isomer 1,2,2,2-trifluoroacetic acid]			5000 to 10000	< 500
COc1ccc(-n2cc(-c3oc4c(C(C)Nc5ccccc5C(=O)O)cc(C)cc4c(=O)c3C)cn2)cc1 (single isomer, unassigned) [Example 69, 2-[1-[2-[1-(4-Methoxyphenyl)pyrazol-4-yl]-3,6-dimethyl-4-oxo-chromen-8-yl]ethylamino]benzoic acid, Isomer 1,2,2,2-trifluoroacetic acid]			500 to 1000	< 500
Cc1cc(C(C)Nc2ccccc2C(=O)O)c2oc(-c3cccc(C(F)F)n3)c(C)c(=O)c2c1 (single isomer, unassigned) [Example 77, 2-[1-[2-[6-(Difluoromethyl)-2-pyridyl]-3,6-dimethyl-4-oxo-chromen-8-yl]ethylamino]benzoic acid, Isomer 1,2,2,2-trifluoroacetic acid]			500 to 1000	< 500
Cc1cc(C(C)Nc2ccccc2C(=O)O)c2oc(-c3cnn(-c4ccc(C(F)(F)F)cc4)c3)cc(=O)c2c1 (single isomer, unassigned) [Example 87, 2-[1-[6-Methyl-4-oxo-2-[1-[4-(trifluoromethyl)phenyl]pyrazol-4-yl]chromen-8-yl]ethylamino]benzoic acid, Isomer 2,2,2,2-trifluoroacetic acid]			5000 to 10000	< 500
Cc1cc(C(C)Nc2ccccc2C(=O)O)c2oc(-c3cnn(-c4ccc(S(C)(=O)=O)cc4)c3)cc(=O)c2c1 (single isomer, unassigned) [Example 88, 2-[1-[6-Methyl-2-[1-(4-methylsulfonylphenyl)pyrazol-4-yl]-4-oxo-chromen-8-yl]ethylamino]benzoic acid, Isomer 2,2,2,2-trifluoroacetic acid]			1000 to 5000	< 500
Cc1cc(C(C)Nc2ccccc2C(=O)O)c2oc(-c3cnn(-c4ccc5c(c4)OC(F)(F)O5)c3)cc(=O)c2c1 (single isomer, unassigned) [Example 91, 2-[1-[2-[1-(2,2-Difluoro-1,3-benzodioxol-5-yl)pyrazol-4-yl]-6-methyl-4-oxo-chromen-8-yl]ethylamino]benzoic acid, Isomer 2,2,2,2-trifluoroacetic acid]			> 10000	500 to 1000
